Legend:
Experiment in all cases: Expanded lung cancer cell line proliferation assay
Type in all cases: cell-based
BEN = settings: 72 h, average of PrestoBlue and Cell Titer Glo, AKR1C3 2573.5 TPM, read-out: Absolute Qualified AC50
Outline: (§1)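 Lung cancer lines plated at density set by doubling time are treated in triplicate for 72 h with compound up to 1 μM final. Cell viability is measured by resazurin reduction and ATP luminescence; Absolute Qualified AC50 values average the two readouts after control-based normalization.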

Calu-6 = settings: Homo sapiens; Calu-6, 72 h, average of PrestoBlue and Cell Titer Glo; AKR1C3 32.5 TPM; read-out: Absolute Qualified AC50
Outline: as §1

ChaGo-K-1 = settings: Homo sapiens; ChaGo-K-1, 72 h, average of PrestoBlue and Cell Titer Glo; AKR1C3 1.5 TPM; read-out: Absolute Qualified AC50
Outline: as §1

DV-90 = settings: Homo sapiens; DV-90, 72 h, average of PrestoBlue and Cell Titer Glo; AKR1C3 48.9 TPM; read-out: Absolute Qualified AC50
Outline: as §1

EBC-1 = settings: Homo sapiens; EBC-1, 72 h, average of PrestoBlue and Cell Titer Glo; AKR1C3 92.4 TPM; read-out: Absolute Qualified AC50
Outline: as §1

HCC78 = settings: Homo sapiens; HCC78, 72 h, average of PrestoBlue and Cell Titer Glo; AKR1C3 3 TPM; read-out: Absolute Qualified AC50
Outline: as §1

HLC-1 = settings: HLC-1, 72 h, average of PrestoBlue and Cell Titer Glo; AKR1C3 expression: no data available; read-out: Absolute Qualified AC50
Outline: as §1

LCLC-97TM1 = settings: Homo sapiens; LCLC-97TM1, 72 h, average of PrestoBlue and Cell Titer Glo; AKR1C3 1.9 TPM; read-out: Absolute Qualified AC50
Outline: as §1

NCI-H1373 = settings: Homo sapiens; NCI-H1373, 72 h, average of PrestoBlue and Cell Titer Glo; AKR1C3 8 TPM; read-out: Absolute Qualified AC50
Outline: as §1

NCI-H1703 = settings: Homo sapiens; NCI-H1703, 72 h, average of PrestoBlue and Cell Titer Glo; AKR1C3 3.2 TPM; read-out: Absolute Qualified AC50
Outline: as §1

NCI-H2023 = settings: NCI-H2023, 72 h, average of PrestoBlue and Cell Titer Glo; AKR1C3 1424.8 TPM; read-out: Absolute Qualified AC50
Outline: as §1

NCI-H2286 = settings: Homo sapiens; NCI-H2286, 72 h, average of PrestoBlue and Cell Titer Glo; AKR1C3 0.9 TPM; read-out: Absolute Qualified AC50
Outline: as §1

NCI-H460 = settings: Homo sapiens; NCI-H460, 72 h, average of PrestoBlue and Cell Titer Glo; AKR1C3 865.3 TPM; read-out: Absolute Qualified AC50
Outline: as §1

RERF-LC-AI = settings: 72 h, average of PrestoBlue and Cell Titer Glo, AKR1C3 7.6 TPM, read-out: Absolute Qualified AC50
Outline: as §1

SMILES: CN1c2ccc(F)cc2C(=O)CC12CCN(C(=O)NCc1ccc(F)c(NCCO)c1)CC2 [Example 36, 6′-fluoro-N-(4-fluoro-3-((2-hydroxyethyl)amino)benzyl)-1′-methyl-4′-oxo-3′,4′-dihydro-1′H-spiro[piperidine-4,2′-quinoline]-1-carboxamide]
- AC50 (BEN): 399 nM
- AC50 (Calu-6): > 1000 nM
- AC50 (ChaGo-K-1): > 1000 nM
- AC50 (DV-90): 347 nM
- AC50 (EBC-1): > 1000 nM
- AC50 (HCC78): > 1000 nM
- AC50 (HLC-1): > 1000 nM
- AC50 (LCLC-97TM1): > 1000 nM
- AC50 (NCI-H1373): > 1000 nM
- AC50 (NCI-H1703): > 1000 nM
- AC50 (NCI-H2023): 347 nM
- AC50 (NCI-H2286): > 1000 nM
- AC50 (NCI-H460): 268 nM
- AC50 (RERF-LC-AI): > 1000 nM

SMILES: O=C1CC2(CCN(C(=O)NCc3ccc(F)cc3)CC2)Nc2ccc(F)cc21 [Example 40]
- AC50 (BEN): 57 nM
- AC50 (Calu-6): > 1000 nM
- AC50 (ChaGo-K-1): > 1000 nM
- AC50 (DV-90): 159 nM
- AC50 (EBC-1): > 1000 nM
- AC50 (HCC78): > 1000 nM
- AC50 (HLC-1): > 1000 nM
- AC50 (LCLC-97TM1): > 1000 nM
- AC50 (NCI-H1373): > 1000 nM
- AC50 (NCI-H1703): > 1000 nM
- AC50 (NCI-H2023): 63 nM
- AC50 (NCI-H2286): > 1000 nM
- AC50 (NCI-H460): 50 nM
- AC50 (RERF-LC-AI): > 1000 nM

— patent US11970497B2, “Tricyclic AKR1C3 dependent KARS inhibitors” (Novartis AG, priority 2019, dated 2024)
